Laboratory results as given in patent US9802945B2, “Imidazopyridazine derivatives as modulators of the GABAA receptor activity” (Pfizer Limited, priority 2014, dated 2017).
Where a name gives a salt, the structure may show the parent alone. Read-outs that look alike come from different tables or passages of the source.

What was measured:
[1] = molecular target: human recombinant GABA A receptor containing the alpha2, beta2, and gamma3 subunits (Homo sapiens, UniProt P47869+Q99928); assay: Radioligand competition binding assay with [3H]Ro-15-1788 (Flumazenil)
Experimental: Membranes were prepared from HEK cells expressing hGABA A alpha2beta2-gamma3 receptor, and validated to ascertain protein concentration, receptor expression and to determine the Kd of the flumazenil as well as the Ki of a standard set of compounds before being used to test new compounds.
100 ul of radioligand and 100 ul of membrane in 50 mM Tris-HCl and 0.05% F127 with 1 ul of test compound was incubated for 2 hours to allow the reaction to achieve equilibrium, and then harvested onto filter plates, dried and counted on a TopCount NXT. The data was analysed, and the Ki values were presented as the geometric mean of at least two replicates.

[2] = molecular target: GABA channels expressing the α1 subunit (GABRA1-GABRB3-GABRG2) in HEK cells (Homo sapiens (Human), UniProt P14867+P18507); assay: QPatch whole-cell patch-clamp electrophysiology, enhancement of GABA current (α1); assay type: cell-based; details: −60 mV, approximately EC10 GABA
Experimental: (§1) Cell suspension containing HEK cells expressing GABRA2-GABRB2-GABRG2 was placed on the QPatch instrument in serum-free medium into the instrument's cell stirrer. […] All recordings were made at room temperature (22-24° C.).
(§2) Current records were acquired at 1 KHz and filtered at 0.3 KHz using the Bessel filter. Series resistance compensation was set to 80% in the QPatch software.
(§3) All compounds were dissolved in dimethyl sulfoxide to make 30 mM or 10 mM stock solutions, which were then diluted to 1000 times the desired final concentration in dimethyl sulfoxide. These were diluted into extracellular solution to attain the final concentrations desired. […] This concentration of dimethyl sulfoxide was present in all samples.
(§4) Currents were recorded at −60 mV, using an approximately EC10 concentration of gamma-aminobutyric acid (GABA).
(§5) Compound effect (% enhancement of gamma-aminobutyric acid current) was calculated using the following formula: [((peak modulator current amplitude−leak)−(GABA current amplitude−leak))/(GABA current amplitude−leak)]*100, where ‘leak’ is leak current at −60 mV, ‘peak modulator current amplitude’ is the current elicited by co-application of gamma-aminobutyric acid and test compound, and ‘GABA current amplitude’ is the current elicited by application of gamma-aminobutyric acid alone.
The ability of the compounds of the formula (I) to modulate the GABA channels expressing the α1 subunit (or GABRA1) can also be measured using an assay analogous to that described above but replacing the GABRA2-GABRB2-GABRG2 gene construct with the GABRA1-GABRB3-GABRG2 gene construct. All other conditions remain the same including the same cell line and conditions for cell growth.

[3] = molecular target: GABRA2-GABRB2-GABRG2 chloride currents in HEK cells (Homo sapiens (Human), UniProt P18507+P47869); assay: QPatch whole-cell patch-clamp electrophysiology, enhancement of GABA current (α2); assay type: cell-based; details: −60 mV, approximately EC10 GABA
Experimental: Human Embryonic Kidney (HEK) cells were transfected with a GABRA2-GABRB2-GABRG2 construct using standard techniques.
For QPatch electrophysiology testing, cells were harvested from flasks by enzymatic dissociation and resuspended in serum-free medium. Cells were typically used for electrophysiological experiments within 24 to 72 hours after splitting.
as §1, §2, §3, §4, §5

[4] = read-out: GABA-α2 Ki, hGABA A alpha2beta2gamma3 membranes from HEK cells, geometric mean of at least two replicates

Chain of GABA channels expressing the α1 subunit (GABRA1-GABRB3-GABRG2) in HEK cells (P14867 28-456): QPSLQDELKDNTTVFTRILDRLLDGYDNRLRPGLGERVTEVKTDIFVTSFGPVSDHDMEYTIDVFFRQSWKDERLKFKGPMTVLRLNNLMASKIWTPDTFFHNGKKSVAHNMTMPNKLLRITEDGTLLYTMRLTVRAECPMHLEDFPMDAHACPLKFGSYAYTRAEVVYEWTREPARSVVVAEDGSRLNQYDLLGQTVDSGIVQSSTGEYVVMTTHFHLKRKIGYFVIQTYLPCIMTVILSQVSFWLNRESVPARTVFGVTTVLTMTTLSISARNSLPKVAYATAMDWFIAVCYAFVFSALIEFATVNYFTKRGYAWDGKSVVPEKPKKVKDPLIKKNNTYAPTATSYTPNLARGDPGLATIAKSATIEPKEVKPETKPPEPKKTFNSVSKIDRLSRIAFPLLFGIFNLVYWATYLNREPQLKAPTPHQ
Chain of GABA channels expressing the α1 subunit (GABRA1-GABRB3-GABRG2) in HEK cells (P28472 26-473 partner): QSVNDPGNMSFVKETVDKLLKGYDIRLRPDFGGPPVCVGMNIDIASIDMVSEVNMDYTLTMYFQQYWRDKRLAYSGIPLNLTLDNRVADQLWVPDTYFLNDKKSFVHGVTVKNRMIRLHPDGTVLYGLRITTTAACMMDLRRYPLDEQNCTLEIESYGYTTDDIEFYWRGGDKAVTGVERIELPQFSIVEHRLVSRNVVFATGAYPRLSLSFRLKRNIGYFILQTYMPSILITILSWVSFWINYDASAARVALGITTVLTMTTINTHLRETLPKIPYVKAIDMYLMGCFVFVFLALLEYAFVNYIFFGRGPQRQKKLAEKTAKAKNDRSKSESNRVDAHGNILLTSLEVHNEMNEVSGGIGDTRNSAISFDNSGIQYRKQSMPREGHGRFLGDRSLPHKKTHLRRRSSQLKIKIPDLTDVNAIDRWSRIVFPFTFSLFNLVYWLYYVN
Chain of GABA channels expressing the α1 subunit (GABRA1-GABRB3-GABRG2) in HEK cells (P18507 40-475): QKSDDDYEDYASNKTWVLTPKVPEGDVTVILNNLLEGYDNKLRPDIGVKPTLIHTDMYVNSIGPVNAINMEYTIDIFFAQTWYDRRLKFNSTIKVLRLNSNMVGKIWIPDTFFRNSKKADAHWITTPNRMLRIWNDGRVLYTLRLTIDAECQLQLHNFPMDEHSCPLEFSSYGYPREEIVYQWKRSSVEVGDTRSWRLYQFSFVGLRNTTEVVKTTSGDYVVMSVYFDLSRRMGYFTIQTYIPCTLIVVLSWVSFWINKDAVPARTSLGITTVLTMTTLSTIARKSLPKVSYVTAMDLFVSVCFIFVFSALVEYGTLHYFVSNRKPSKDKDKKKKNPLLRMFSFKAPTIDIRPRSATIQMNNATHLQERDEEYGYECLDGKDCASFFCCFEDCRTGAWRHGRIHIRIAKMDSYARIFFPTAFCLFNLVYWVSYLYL
Chain of GABRA2-GABRB2-GABRG2 chloride currents in HEK cells (P47869 29-451): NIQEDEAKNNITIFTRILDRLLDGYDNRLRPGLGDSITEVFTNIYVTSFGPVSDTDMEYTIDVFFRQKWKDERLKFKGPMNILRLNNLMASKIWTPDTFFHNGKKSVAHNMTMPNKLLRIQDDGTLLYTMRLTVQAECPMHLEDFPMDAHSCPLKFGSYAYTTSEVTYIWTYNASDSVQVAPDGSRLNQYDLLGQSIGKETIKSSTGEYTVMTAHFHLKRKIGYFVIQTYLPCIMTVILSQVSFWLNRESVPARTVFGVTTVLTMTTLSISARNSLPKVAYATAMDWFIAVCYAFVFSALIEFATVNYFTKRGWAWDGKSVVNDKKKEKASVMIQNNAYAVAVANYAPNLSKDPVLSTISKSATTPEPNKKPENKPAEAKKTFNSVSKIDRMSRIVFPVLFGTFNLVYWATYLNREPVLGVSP
Chain of GABRA2-GABRB2-GABRG2 chloride currents in HEK cells (P47870 26-512 partner): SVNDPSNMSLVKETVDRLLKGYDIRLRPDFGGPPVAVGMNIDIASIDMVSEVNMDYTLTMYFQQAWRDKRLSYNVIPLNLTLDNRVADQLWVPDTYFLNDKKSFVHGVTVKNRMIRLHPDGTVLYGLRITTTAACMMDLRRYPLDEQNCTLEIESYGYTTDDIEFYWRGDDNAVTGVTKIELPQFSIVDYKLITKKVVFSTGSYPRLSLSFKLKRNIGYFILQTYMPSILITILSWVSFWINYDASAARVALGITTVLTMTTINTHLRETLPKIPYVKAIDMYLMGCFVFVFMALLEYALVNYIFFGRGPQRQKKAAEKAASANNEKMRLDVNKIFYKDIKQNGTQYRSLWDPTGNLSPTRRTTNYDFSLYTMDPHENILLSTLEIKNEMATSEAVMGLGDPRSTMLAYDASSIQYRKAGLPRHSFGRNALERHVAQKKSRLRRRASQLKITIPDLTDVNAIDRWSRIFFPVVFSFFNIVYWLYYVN
Chain of GABRA2-GABRB2-GABRG2 chloride currents in HEK cells (P18507 40-475): as the sequence (P18507 40-475) above

| Ki [1, 4] [nM] | α1 PAM (% enhancement of gamma-aminobutyric acid current) [2] [%] | α2 PAM (% enhancement of gamma-aminobutyric acid current) [3] [%] | Ki [1] [nM] | Structure (SMILES) |
| --- | --- | --- | --- | --- |
| 30.9 |  | 47 |  | CCn1cnc2c(-c3ccc(F)c(-c4cc(C(=O)N(C)C)ccc4F)c3)cnnc21 [Example 7, 5′-(7-Ethyl-7H-imidazo[4,5-c]pyridazin-4-yl)-2′,6-difluoro-N,N-dimethylbiphenyl-3-carboxamide] |
| 7.5 | −55 | 11 |  | CCn1cnc2c(-c3ccc(F)c(-c4ccc(C(N)=O)cc4)c3)cnnc21 [Example 14, 5′-(7-Ethyl-7H-imidazo[4,5-c]pyridazin-4-yl)-2′-fluorobiphenyl-4-carboxamide] |
|  | −29 | 33 | 6.3 | CCn1cnc2c(-c3ccc(F)c(-c4ccc(C(=O)NC)cc4OC)c3)cnnc21 [Example 21, 5′-(7-Ethyl-7H-imidazo[4,5-c]pyridazin-4-yl)-2′-fluoro-2-methoxy-N-methylbiphenyl-4-carboxamide] |
|  | −1 | 23 | 81.2 | CCn1cnc2c(-c3ccc(F)c(-c4ccc(C(=O)N(C)C)cc4OC)c3)cnnc21 [Example 22, 5′-(7-Ethyl-7H-imidazo[4,5-c]pyridazin-4-yl)-2′-fluoro-2-methoxy-N,N-dimethylbiphenyl-4-carboxamide] |
| 340 |  |  |  | CCn1cnc2c(-c3ccc(F)c(-c4cc(C(=O)N(C)C)ccc4OC)c3)cnnc21 [Example 23, 5′-(7-Ethyl-7H-imidazo[4,5-c]pyridazin-4-yl)-2′-fluoro-6-methoxy-N,N-dimethylbiphenyl-3-carboxamide] |

Second part, the molecule before the results:

| Structure (SMILES) | Ki [1, 4] [nM] | α1 PAM (% enhancement of gamma-aminobutyric acid current) [2] [%] | α2 PAM (% enhancement of gamma-aminobutyric acid current) [3] [%] | Ki [1] [nM] |
| --- | --- | --- | --- | --- |
| CC(C)n1cnc2c(-c3ccc(F)c(-c4ccc5c(c4)CN(C)C5=O)c3)cnnc21 [Example 2, 5-{2-Fluoro-5-[7-(propan-2-yl)-7H-imidazo[4,5-c]pyridazin-4-yl]phenyl}-2-methyl-2,3-dihydro-1H-isoindol-1-one] | 6.4 | 12 | 106 |  |
| CCn1cnc2c(-c3ccc(F)c(-c4ccc5c(c4)C(=O)NC5)c3)cnnc21 [Example 6, 6-[5-(7-Ethyl-7H-imidazo[4,5-c]pyridazin-4-yl)-2-fluorophenyl]-2,3-dihydro-1H-isoindol-1-one] | 81.8 | −61 | 10 |  |
| CNC(=O)c1ccc(F)c(-c2cc(-c3cnnc4c3ncn4C3CC3)ccc2F)c1 [Example 8, 5′-(7-Cyclopropyl-7H-imidazo[4,5-c]pyridazin-4-yl)-2′,6-difluoro-N-methyl-biphenyl-3-carboxamide] | 29 |  |  |  |
| CN1Cc2cc(-c3cc(-c4cnnc5c4ncn5C4CC4)ccc3F)ccc2C1=O [Example 10, 5-[5-(7-Cyclopropyl-7H-imidazo[4,5-c]pyridazin-4-yl)-2-fluorophenyl]-2-methyl-2,3-dihydro-1H-isoindol-1-one] | 54.7 | −12 | 36 |  |
| CNC(=O)c1ccc(-c2cc(-c3cnnc4c3ncn4C3CC3)ccc2F)cc1 [Example 11, 5′-(7-Cyclopropyl-7H-imidazo[4,5-c]pyridazin-4-yl)-2′-fluoro-N-methylbiphenyl-4-carboxamide] | 20.5 |  | 60 |  |
| CC(C)n1cnc2c(-c3ccc(F)c(-c4ccc(C(N)=O)cc4)c3)cnnc21 [Example 12, 2′-Fluoro-5′-[7-(propan-2-yl)-7H-imidazo[4,5-c]pyridazin-4-yl]biphenyl-4-carboxamide] | 10.7 |  | 48 |  |
| CCn1cnc2c(-c3ccc(F)c(-c4cccc(C(N)=O)c4)c3)cnnc21.O=C(O)C(F)(F)F [Example 15, 5′-(7-Ethyl-7H-imidazo[4,5-c]pyridazin-4-yl)-2′-fluorobiphenyl-3-carboxamide trifluoroacetate salt] | 20.3 | −34 | 40 |  |
| CCn1cnc2c(-c3ccc(F)c(-c4ccc(C(=O)N(C)C)c(F)c4)c3)cnnc21 [Example 17, 5′-(7-Ethyl-7H-imidazo[4,5-c]pyridazin-4-yl)-2′,3-difluoro-N,N-dimethylbiphenyl-4-carboxamide trifluoroacetate salt] | 52.8 |  |  |  |
| CCn1cnc2c(-c3ccc(F)c(-c4ccc(C(=O)NC(C)C)cc4)c3)cnnc21 [Example 18, 5′-(7-Ethyl-7H-imidazo[4,5-c]pyridazin-4-yl)-2′-fluoro-N-(propan-2-yl)biphenyl-4-carboxamide trifluoroacetate salt] | 19.3 |  |  |  |
| CCn1cnc2c(-c3ccc(F)c(-c4cc(F)cc(C(=O)NC)c4)c3)cnnc21.O=C(O)C(F)(F)F [Example 19, 5′-(7-Ethyl-7H-imidazo[4,5-c]pyridazin-4-yl)-2′,5-difluoro-N-methylbiphenyl-3-carboxamide trifluoroacetate salt] | 51 | 14 | 66 |  |
| CCn1cnc2c(-c3cccc(-c4ccc(C(=O)N(C)C)cc4)c3)cnnc21 [Example 20, 5′-(7-Ethyl-7H-imidazo[4,5-c]pyridazin-4-yl)-N,N-dimethyl-biphenyl-4-carboxamide trifluoroacetate salt] | 224 |  |  |  |
